Experimental findings from ChEMBL document CHEMBL5143542, “Synthesis and biological studies of "Polycerasoidol" and "trans-δ-Tocotrienolic acid" derivatives as PPARα and/or PPARγ agonists” (Bioorg Med Chem, 2022) are described below.

Activity calls are given as the source filed them. The calls are words filed in the database; no cut-off is given here.

Common to all, as to type: cell-based
Data set [1] concerns the target T1, Peroxisome proliferator-activated receptor alpha (Homo sapiens) (UniProt Q07869).
T1 sequence (whole entry): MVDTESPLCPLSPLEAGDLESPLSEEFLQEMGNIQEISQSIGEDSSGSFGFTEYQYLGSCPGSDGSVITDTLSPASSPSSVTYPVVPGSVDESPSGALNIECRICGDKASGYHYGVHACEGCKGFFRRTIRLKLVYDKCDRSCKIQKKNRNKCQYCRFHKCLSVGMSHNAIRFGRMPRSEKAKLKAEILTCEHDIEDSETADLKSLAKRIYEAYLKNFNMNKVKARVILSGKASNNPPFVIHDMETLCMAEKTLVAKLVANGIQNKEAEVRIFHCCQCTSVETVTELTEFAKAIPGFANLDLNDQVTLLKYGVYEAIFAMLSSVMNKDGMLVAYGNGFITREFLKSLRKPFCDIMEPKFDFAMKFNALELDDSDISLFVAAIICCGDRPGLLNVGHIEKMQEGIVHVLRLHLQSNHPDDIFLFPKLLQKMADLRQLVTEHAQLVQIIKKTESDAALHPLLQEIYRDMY
The data set is described as follows: Agonist activity at Gal4-fused human PPARalpha expressed in COS7 cells assessed as receptor transactivation at 10 uM measured after 24 hrs by luciferase/beta-galactosidase reporter gene assay relative to WY-14643. To be noted: filed as agonist. (In general: A reporter such as luciferase makes a cellular process visible.)

For data set [2], the target named is T2, Peroxisome proliferator-activated receptor gamma (Homo sapiens, UniProt P37231).
T2 sequence (P37231 whole entry): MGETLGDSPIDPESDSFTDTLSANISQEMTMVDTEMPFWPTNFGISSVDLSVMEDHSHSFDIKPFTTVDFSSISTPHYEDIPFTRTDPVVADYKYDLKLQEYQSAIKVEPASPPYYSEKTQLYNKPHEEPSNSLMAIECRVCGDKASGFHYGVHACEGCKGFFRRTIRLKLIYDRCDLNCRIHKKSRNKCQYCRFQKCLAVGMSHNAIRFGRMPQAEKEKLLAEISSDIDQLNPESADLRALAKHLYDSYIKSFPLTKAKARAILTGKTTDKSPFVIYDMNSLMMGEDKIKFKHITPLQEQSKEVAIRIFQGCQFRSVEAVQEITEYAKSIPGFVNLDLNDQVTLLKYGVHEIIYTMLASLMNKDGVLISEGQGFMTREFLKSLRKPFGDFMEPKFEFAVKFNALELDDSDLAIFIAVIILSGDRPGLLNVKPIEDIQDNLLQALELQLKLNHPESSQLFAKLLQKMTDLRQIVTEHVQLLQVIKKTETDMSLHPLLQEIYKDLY
Kind of data set: (§1) Agonist activity at Gal4-fused human PPARgamma expressed in COS7 cells assessed as receptor transactivation at 10 uM measured after 24 hrs by luciferase/beta-galactosidase reporter gene assay relative to rosiglitazone. To be noted: cos7, 24 h, 10 µM.

Data set [3] addresses T3, Peroxisome proliferator-activated receptor gamma (Homo sapiens) (UniProt P37231).
T3 sequence (whole entry): T2 sequence (P37231 whole entry)
The data set is described as follows: Partial agonist activity at Gal4-fused human PPARgamma expressed in COS7 cells assessed as receptor transactivation at 10 uM measured after 24 hrs by luciferase/beta-galactosidase reporter gene assay. To be noted: filed as partial agonist.

The next data set has as its target T4, PPARgamma (Homo sapiens, UniProt P37231).
T4 sequence (P37231 whole entry): T2 sequence (P37231 whole entry)
Described as §1. The note with it: COS7 cells expressing Gal4-fused human PPARgamma, read-out: max activation.

`CCCOc1ccc2c(c1)CCC(C)(CC/C=C(\C)CC/C=C(\C)CC/C=C(\C)C(=O)OCC)O2` (stereo unspecified): in data set [1], the outcome was Active. Further, in data set [2], the result was Active.

For `C/C(=C\CCC1(C)CCc2cc(OCc3ccccc3)ccc2O1)CC/C=C(\C)C(=O)Nc1ccccc1` (stereo unspecified), the outcome in data set [3] was Active.

On to `CCCOc1ccc2c(c1)CCC(C)(CC/C=C(\C)CC/C=C(\C)C(=O)OCC)O2` (stereo unspecified), for which the outcome in data set [2] was Active.

Consider `C/C(=C\CCC1(C)CCc2cc(OCc3ccccc3)ccc2O1)CCC(=O)Nc1ccccc1` (stereo unspecified), for which, in data set [1], the outcome was Active. The result in data set [2] was Active.

With `CCCOc1ccc2c(c1)CCC(C)(CC/C=C(\C)CC/C=C(\C)CC/C=C(\C)C(=O)Nc1ccccc1)O2` (stereo unspecified), in data set [1], the result was Active. Also, in data set [2], the outcome was Active.

Take `C/C(=C\CC[C@]1(C)CCc2cc(O)cc(C)c2O1)CC/C=C(\C)C(=O)O`: the max activation in data set [1] turned out to be 107%. Moreover, on PPARgamma, the Emax at 24 h, 10 µM amounted to 95%.

In the case of `CCCOc1ccc2c(c1)CCC(C)(CC/C=C(\C)CCC(=O)Nc1ccccc1)O2` (stereo unspecified), in data set [1], the result was Active. In addition, the result in data set [2] was Active.

On to `CCCOc1ccc2c(c1)CCC(C)(CC/C=C(\C)CCC(=O)OCC)O2` (stereo unspecified), for which, in data set [1], the result was Active. Moreover, the outcome in data set [2] was Active.

On to `CCOC(=O)CC/C(C)=C/CCC1(C)CCc2cc(OCc3ccccc3)ccc2O1` (stereo unspecified), for which the max activation in data set [1] turned out to be 123%. Further, the Emax at 24 h, 10 µM at PPARgamma turned out to be 38%.
